Assays:
visceral pain (writhing) = assay: Acetic Acid or Acetylcholine Writhing Assay; assay type: in vivo; conditions: PO
Description: Animals were fasted overnight prior to the start of the assay. Test and control article doses, ranging from 3-50 mg/kg, were administered (PO) followed by an IP injection of acetic acid (1.0%) or acetylcholine (10 mg/kg), and immediately placed in a viewing chamber. […] Writhing (abdominal constriction) was defined as a contraction of the abdominal musculature accompanied by arching of the back and extension of the limbs. Latency to first writhe and total number of writhes were recorded. Test articles included oral eluxadoline and two illustrative opioid peptides disclosed herein, Peptide A and Peptide D; and control articles included loperamide and morphine

[1] = system: gastro intestinal motility; assay: Gastro Intestinal Motility Charcoal Transit Assay; assay type: in vivo
Description: Animals were treated with 0.2 mL croton oil 96 and 72 hours before the gastro intestinal transit (GIT) assay. Animals were fasted overnight prior to charcoal meal dosing. Test and control articles were administered (PO, IP) followed by an oral dose of aqueous suspension of 5% charcoal in 10% gum arabic. […] Charcoal meal test were given 30 min post-test article dose. Twenty minutes after administration of the charcoal test meal, animals were euthanized via CO2 inhalation followed by cervical dislocation, and the small and large intestines were examined to evaluate GI transit and motility. GI transit is expressed as a percentage of the distance traveled by the charcoal test meal divided by the length of the intestine.

[2] = SIF assay (stability in simulated intestinal fluid); assay type: in vitro ADME; conditions: for half-life at 20 μM: simulated intestinal fluid (SIF) with pancreatin, simulated intestinal fluid, pH 6.8, pancreatin, 37° C.
Description: SIF was prepared by adding 6.8 g of monobasic potassium phosphate and 10.0 g of pancreatin to 1.0 L of water. After dissolution, the pH was adjusted to 6.8 using NaOH. DMSO stocks (2 mM) were prepared for each of the opioid agonist peptides. Aliquots of the DMSO solutions were dosed into […], each containing 0.5 mL of SIF, which was pre-warmed to 37° C. The final opioid agonist peptide concentration was 20 μM. The vials were kept in a benchtop Thermomixer® for the duration of the experiment. At each timepoint (0, 5, 10, 20, 40, 60, or 360 minutes or 24 hours), 1.0 mL of acetonitrile containing 1% formic acid was added to one vial to terminate the reaction. Samples were stored at 4° C. until the end of the experiment. After the final timepoint was sampled, the tubes were mixed and then centrifuged at 3,000 rpm for 10 minutes. Aliquots of the supernatant were removed, diluted 1:1 into distilled water containing an internal standard, and analyzed by LCMS/MS. The percent of the opioid agonist peptide remaining at each timepoint was calculated based on the peak area response ratio of opioid agonist peptide to the internal standard. Time 0 was set to 100%, and all later timepoints were calculated relative to time 0. Half-lives were calculated by fitting to a first-order exponential decay equation using Graph pad.

[3] = SGF assay (stability in simulated gastric fluid); assay type: in vitro ADME; conditions: pig, simulated gastric fluid (SGF) with porcine pepsin, pH 2, pepsin, 37° C.
Description: SGF was prepared by adding 20 mg NaCl, 32 mg porcine pepsin (MP Biochemicals, catalog 02102599), and 70 μl HCl to 10 ml water (final pH=2). Aliquots of SGF (0.5 ml each) were pre-warmed at 37° C. To start the reaction, 1 μl of opioid agonist peptide stock solution (10 mM in DMSO) was added to 0.5 ml SGF and thoroughly mixed such that the final peptide concentration was 20 μM. The reactions were incubated at 37° C. with gentle shaking.
At each timepoint (0, 15, 30, 60 min) 50 µl aliquots were removed and added to 200 ul of acetonitrile containing 0.1% formic acid to quench the reaction. Samples were stored at 4° C. until the end of the experiment and centrifuged at 10,000 rpm for 5 minutes. Aliquots of the supernatant were removed, diluted 1:1 into distilled water containing internal standard, and analyzed by LCMS/MS. The percent of the opioid agonist peptide remaining at each timepoint was calculated based on the peak area response ratio of the opioid agonist peptide to the internal standard. Time 0 was set to 100%, and all later timepoints were calculated relative to time 0. Half-lives were calculated by fitting to a first-order exponential decay equation using GraphPad.

[4] = Plasma assay (stability in mouse plasma); assay type: in vitro ADME; conditions: 37° C.
Description: Peptides of interest (20 uM) were incubated with pre-warmed mouse plasma (BioreclamationIVT) at 37° C. Aliquots were taken at various time points up to 24 hours (e.g. 0, 0.25, 1, 3, 6 and 24 hr), and immediately quenched with 4 volumes of organic solvent (acetonitrile/methanol (1:1) and 0.1% formic acid, containing 1 μM internal standard). Quenched samples were stored at 4° C. until the end of the experiment and centrifuged at 17,000 g for 15 minutes. The supernatant was diluted 1:1 with deionized water and analyzed using LC-MS. Percentage remaining at each time point was calculated based on the peak area ratio (analyte over internal standard) relative to the initial level at time zero. Half-lives were calculated by fitting to a first-order exponential decay equation using Graph Pad Prism.

δ-opioid receptor (DOR) = target: T1, δ-opioid receptor (DOR) (Homo sapiens, UniProt P41143); assay: DOR agonist cAMP assay (HitHunter cAMP, forskolin-stimulated); assay type: cell-based
T1 construct: host or cells: cAMP Hunter CHO-K1 OPRD1 Gαi cell line
Method in brief: (§1)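 CHO-K1 Gαi cells expressing OPRM1 or OPRD1 were exposed 30 min at 37° C to 11-point threefold agonist dilutions, in duplicate, with 20 uM forskolin final. cAMP quantified by EFC chemiluminescent competitive immunoassay against cAMP standards. EC50 by four-parameter Hill nonlinear regression.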

μ-opioid receptor (MOR) = target: T2, μ-opioid receptor (MOR) (Homo sapiens, UniProt P35372); assay: MOR agonist cAMP assay (HitHunter cAMP, forskolin-stimulated); assay type: cell-based
T2 construct: host or cells: cAMP Hunter CHO-K1 OPRM1 Gαi cell line
Method in brief: as §1

T1 sequence (P41143 whole entry): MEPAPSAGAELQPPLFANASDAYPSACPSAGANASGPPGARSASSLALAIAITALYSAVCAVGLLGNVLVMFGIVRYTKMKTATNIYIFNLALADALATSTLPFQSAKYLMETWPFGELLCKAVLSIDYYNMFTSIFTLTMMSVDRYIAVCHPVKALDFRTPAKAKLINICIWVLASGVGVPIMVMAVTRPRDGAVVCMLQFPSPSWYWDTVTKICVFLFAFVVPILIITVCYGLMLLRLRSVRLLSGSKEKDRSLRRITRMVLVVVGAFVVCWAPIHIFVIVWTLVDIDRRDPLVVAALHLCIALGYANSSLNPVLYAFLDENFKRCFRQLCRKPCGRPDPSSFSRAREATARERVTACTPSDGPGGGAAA
T2 sequence (P35372 whole entry): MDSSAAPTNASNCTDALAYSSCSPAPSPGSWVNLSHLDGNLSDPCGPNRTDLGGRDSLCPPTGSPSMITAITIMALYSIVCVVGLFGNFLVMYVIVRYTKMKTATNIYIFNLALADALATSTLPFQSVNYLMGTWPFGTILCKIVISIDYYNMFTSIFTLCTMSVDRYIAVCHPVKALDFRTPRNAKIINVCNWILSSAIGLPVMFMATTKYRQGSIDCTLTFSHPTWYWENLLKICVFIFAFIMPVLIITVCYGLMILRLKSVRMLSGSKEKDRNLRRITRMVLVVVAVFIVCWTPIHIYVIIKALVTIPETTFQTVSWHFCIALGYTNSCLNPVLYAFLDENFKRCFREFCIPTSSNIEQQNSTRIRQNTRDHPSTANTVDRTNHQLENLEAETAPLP

SMILES | effect on pain (writhing study) (visceral pain (writhing); FIGS. 3A and 3B) | visceral pain (writhing study) (visceral pain (writhing); at 30 mg/kg and 10 mg/kg, FIGS. 2A and 2B) | % inhibition of GI motility ([1]; Table 4, orally dosed, charcoal transit) | inhibition of small intestine motility as compared to eluxadoline ([1]; orally administered, all doses tested, FIG. 1A) | inhibition of GI transit as compared to eluxadoline ([1]; orally administered, all doses tested, FIGS. 1B and 1C) | SIF (min) ([2]; Table 4, SIF half-life) | half-life at 20 μM [3] [h] | half-life at 20 μM [2] [h] | half-life at 20 uM [4] [h] | EC50 (δ-opioid receptor (DOR)) [nM] | EC50 (μ-opioid receptor (MOR)) [nM]
Cc1cc(O)cc(C)c1C[C@H](N)C(=O)N[C@H](C)C(=O)NCC(=O)N[C@H](CC(=O)N(C)CC(N)=O)Cc1ccccc1 [Seq. ID 43, H-DMT-a-G-bhF-Sar-NH2] | positive effect | significantly reduced visceral pain | ** (** indicates between 50% and 100%) | slightly greater inhibition of small intestine motility | greater inhibition of GI transit | **** (for SIF half-life values, **** indicates >1290) | – | – | – | – | –
CCCC[C@H](NC(=O)[C@H](Cc1ccccc1)NC(=O)CNC(=O)[C@@H](C)NC(=O)[C@@H](N)Cc1c(C)cc(O)cc1C)C(N)=O [compound 37] | – | – | – | – | – | – | 0.167 to 6 | ≤ 0.167 | 6 to 24 | – | –
Cc1cc(O)cc(C)c1C[C@H](N)C(=O)N[C@H](C)C(=O)NCC(=O)N[C@H](CC(=O)N(C)CC(N)=O)Cc1ccccc1 [compound 43] | – | – | – | – | – | – | > 24 | 6 to 24 | 6 to 24 | < 1 | –
Cc1cc(O)cc(C)c1C[C@H](N)C(=O)N[C@H](CC(=O)O)C(=O)NCC(=O)N[C@H](CC(=O)N(C)CC(N)=O)Cc1ccccc1 [compound 83] | – | – | – | – | – | – | > 24 | > 24 | > 24 | < 1 | < 1

From patent publication US10278957B2, “Opioid agonist peptides and uses thereof” (Protagonist Therapeutics, Inc., priority 2017, dated 2019)
